Test results taken from the supplement of paper PMC10307832.

How the values were obtained:
Test in all cases: relative viability (nuclei count vs DMSO), 5 days (fraction); higher = more cells survive
RU-SKI 43 + Navitoclax = compound: CC[C@@H](C)CNCC(=O)N1CCC2=C([C@@H]1COC3=CC=CC(=C3)C)C=CS2 [RU-SKI 43] + CC1(C)CCC(c2ccc(Cl)cc2)=C(CN2CCN(c3ccc(C(=O)NS(=O)(=O)c4ccc(N[C@H](CCN5CCOCC5)CSc5ccccc5)c(S(=O)(=O)C(F)(F)F)c4)cc3)CC2)C1 [Navitoclax] (partner 0.5 µM)
Procedure, shortened: (§1)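 Nuclei were stained with Hoechst during a one-step fixation (final 0.05% Triton X-100, 1% formaldehyde, 1 ug/ml Hoechst) carried out 5 days after dosing, then counted on 4× images. The cells, lung cancer lines in 1536-well plates, had been dosed by pin tool the day after seeding with one drug alone or a fixed anchor-drug dose plus five library-drug doses (not always all listed) in √10 steps. Relative viability is the nuclei count in treated wells divided by that in vehicle wells, and each value is the median of duplicate plates.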

Irinotecan + Bortezomib = compound: CCc1c2c(nc3ccc(OC(=O)N4CCC(N5CCCCC5)CC4)cc13)-c1cc3c(c(=O)n1C2)COC(=O)[C@]3(O)CC [Irinotecan] + CC(C)C[C@H](NC(=O)[C@H](Cc1ccccc1)NC(=O)c1cnccn1)B(O)O [Bortezomib] (partner 0.002 µM)
Procedure, shortened: as §1

RU-SKI 43 + Lapatinib = compound: CC[C@@H](C)CNCC(=O)N1CCC2=C([C@@H]1COC3=CC=CC(=C3)C)C=CS2 [RU-SKI 43] + CS(=O)(=O)CCNCc1ccc(-c2ccc3ncnc(Nc4ccc(OCc5cccc(F)c5)c(Cl)c4)c3c2)o1 [Lapatinib] (partner 2 µM)
Procedure, shortened: as §1

Irinotecan + Linsitinib = compound: CCc1c2c(nc3ccc(OC(=O)N4CCC(N5CCCCC5)CC4)cc13)-c1cc3c(c(=O)n1C2)COC(=O)[C@]3(O)CC [Irinotecan] + C[C@]1(O)C[C@@H](c2nc(-c3ccc4ccc(-c5ccccc5)nc4c3)c3c(N)nccn32)C1 [Linsitinib] (partner 1 µM)
Procedure, shortened: as §1

| Cell Line | relative viability (RU-SKI 43 + Navitoclax; first compound 0.1 µM) | relative viability (RU-SKI 43 + Navitoclax; first compound 0.3162 µM) | relative viability (RU-SKI 43 + Navitoclax; first compound 1 µM) | relative viability (RU-SKI 43 + Navitoclax; first compound 3.162 µM) | relative viability (RU-SKI 43 + Navitoclax; first compound 10 µM) | relative viability (Irinotecan + Bortezomib; first compound 0.6325 µM) | relative viability (Irinotecan + Bortezomib; first compound 2 µM) | relative viability (Irinotecan + Bortezomib; first compound 6.325 µM) | relative viability (Irinotecan + Bortezomib; first compound 20 µM) | relative viability (RU-SKI 43 + Lapatinib; first compound 0.1 µM) | relative viability (RU-SKI 43 + Lapatinib; first compound 0.3162 µM) | relative viability (RU-SKI 43 + Lapatinib; first compound 1 µM) | relative viability (RU-SKI 43 + Lapatinib; first compound 3.162 µM) | relative viability (RU-SKI 43 + Lapatinib; first compound 10 µM) | relative viability (Irinotecan + Linsitinib; first compound 0.6325 µM) | relative viability (Irinotecan + Linsitinib; first compound 2 µM) | relative viability (Irinotecan + Linsitinib; first compound 6.325 µM) | relative viability (Irinotecan + Linsitinib; first compound 20 µM) |
| --- | --- | --- | --- | --- | --- | --- | --- | --- | --- | --- | --- | --- | --- | --- | --- | --- | --- | --- |
| NCI-H1975 | 1.06 | 1.45 | 1.07 | 1.07 | 1.07 | 0.294 | 0.31 | 0.278 | 0.129 | 0.968 | 1.32 | 0.867 | 0.853 | 1.02 | 1.1 | 0.803 | 0.326 | 0.204 |
| NCI-H1755 | 1.04 | 1.14 | 1.06 | 1.06 | 1.05 | 0.9 | 0.935 | 0.355 | 0.327 | 1.03 | 1.4 | 1.08 | 0.995 | 1.01 | 0.927 | 0.396 | 0.303 | 0.366 |
| NCI-H2023 | 1.01 | 1.3 | 1.08 | 1.09 | 0.977 | 0.435 | 0.686 | 0.162 | 0.0682 | 0.773 | 0.808 | 1.05 | 0.849 | 0.726 | 0.714 | 0.503 | 0.198 | 0.0873 |
| EKVX | 0.989 | 0.893 | 0.96 | 0.982 | 0.67 | 1.08 | 0.772 | 0.394 | 0.193 | 0.185 | 0.175 | 0.202 | 0.208 | 0.187 | 1.1 | 0.906 | 0.377 | 0.238 |
| EPLC-272H | 1.17 | 1.12 | 1.03 |  | 1.13 | 0.744 | 0.635 | 0.317 | 0.217 | 0.913 | 0.831 | 1.25 |  | 0.833 | 0.943 | 0.241 | 0.202 | 0.287 |
| LCLC-97TM1 | 0.197 |  | 0.336 | 0.399 | 0.396 | 0.41 | 0.387 | 0.148 | 0.176 | 1.08 |  | 1.02 | 1.04 | 0.781 | 0.118 | 0.189 | 0.168 | 0.169 |
| NCI-H2085 | 1.17 | 1.11 | 1.2 | 1.08 | 1.12 | 0.847 | 1.01 | 0.535 | 0.494 | 0.672 | 0.719 | 0.836 | 0.674 | 0.686 | 0.584 | 0.672 | 0.381 | 0.497 |
| COR-L23 | 0.971 | 0.628 | 1.11 | 1.04 | 1.07 | 0.506 | 0.396 | 0.211 | 0.113 | 0.982 | 0.845 | 1.3 | 1.04 | 0.996 | 0.392 | 0.284 | 0.203 | 0.123 |
| NCI-H1703 | 1.2 | 1.08 | 0.987 | 1.16 | 0.535 | 0.267 | 0.426 | 0.33 | 0.112 |  | 1.86 | 1.11 | 1.16 | 0.637 | 0.454 | 0.916 | 0.572 | 0.186 |
| HCC-15 | 0.769 | 0.81 | 0.715 | 0.757 | 0.735 | 0.603 | 0.623 | 0.374 | 0.176 | 0.906 | 1.16 | 1.04 | 0.787 | 0.717 | 0.458 | 0.204 | 0.152 | 0.158 |
| RERF-LC-KJ | 1.07 | 1.29 | 1.09 | 1.21 | 0.9 |  | 1.16 | 0.563 | 0.468 | 0.872 | 0.892 | 0.853 | 0.959 | 0.825 | 0.807 | 0.647 | 0.379 | 0.34 |
| PC-3 [JPC-3] | 0.74 | 0.748 | 0.783 | 0.792 | 0.779 | 0.703 | 0.826 | 0.579 | 0.296 | 0.461 | 0.344 | 0.454 | 0.47 | 0.459 | 0.842 | 0.413 | 0.377 | 0.412 |
| NCI-H1355 | 0.936 | 0.996 | 0.921 | 0.979 | 0.997 | 1.02 | 1.12 | 0.561 | 0.265 | 0.961 | 1.13 | 0.897 | 0.995 | 0.984 | 0.671 | 0.403 | 0.2 | 0.201 |
| NCI-H460 | 1.15 | 1.23 | 1.34 | 1.44 | 1.11 | 0.677 | 0.353 | 0.0854 | 0.0632 | 0.993 | 1.33 | 1.55 | 1.25 | 1.01 | 0.455 | 0.376 | 0.0862 | 0.0869 |
| NCI-H2228 | 0.91 | 1.3 | 0.995 | 1.25 | 0.987 | 0.689 | 0.685 | 0.514 | 0.343 | 1.05 | 1.3 | 1.45 | 1.29 | 0.891 | 0.706 | 0.714 | 0.39 | 0.477 |
| SK-LU-1 | 0.789 | 0.817 | 0.841 | 0.831 | 1.03 | 0.887 | 0.672 | 0.291 | 0.47 | 0.849 | 1.02 | 0.931 | 0.834 | 0.929 | 0.491 | 0.495 | 0.379 | 0.329 |
